Legend:
[1] = Deprez-Decampaneere et al. 1978; cited from earlier work
transcobalamin proteins [2] = test: modified Unsaturated vitamin B12 Binding Capacity (UBBC) assay with patient serum; set-up: species or system human; details: non-labeled solution (1000 μg/10 mL saline, 1 μL) preincubated with serum of five patients, then Co-57-cyanocobalamin
Experimental: Louis, Mo. 63178), were separately dissolved in 10 mL of normal saline at room temperature. […] No buffers were added to the solutions. The pH of the solutions, measured by a Beckman 40 pH meter (Beckman Instruments, Fullerton, Calif.): […] To assess in vitro binding to Intrinsic Factor (IF) and Transcobalamins (TC), the intrinsic factor blocking antibody (IFBA) and Unsaturated vitamin B12 Binding Capacity (UBBC) assays were performed with serum randomly obtained from five patients being evaluated for pernicious anemia at the Mayo Clinic. The IFBA and UBBC assays were first performed for clinical purposes as previously described by V. F. Fairbanks et al., Mayo Clin. Proc., 58, 203 (1983); Intrinsic Factor Blocking Antibody (^57Co) Radioassay-Package insert, Diagnostic Products Corp.; D. Grossowicz et al., Proc. Exp. Biol., 109, 604 (1962) and C. Gottlieb et al., Blood, 25, 6 (1965). Next, the serum from the same five patients underwent modified IFBA and UBBC assays. Specifically, 1 μL of the five previously described solutions was separately incubated with purified IF or serum, to potentially saturate all IF and TC-binding sites. […] Louis, Mo. 63134) solution was added and the usual IFBA and UBBC protocols were then followed. All supernatant activity was counted for four minutes on a gamma counter (Micromedix 10/20, Huntsville, Ala. 35805). […] Comparison of cyanocobalamin-DTPA to cyanocobalamin was 66.4% (Transcobalamin II receptor imaging via radiolabeled diethylene-triaminepentaacetate cobalamin analogs, J. Nucl. Med., 38, 717-723 (1997); also described in U.S. Pat. […] A. Collins, […], Tumor Imaging Indium-111-labeled DTPA-adenosylcobalamin, Mayo Clinic Proceedings, 1999; 74; 687-691; Biodistribution of Radiolabeled Adenosylcobalamin in Humans, Review of 30 patents submitted to Mayo Clinic Proceedings). This should improve tumor-to-background ratio, which can be evaluated in murine tumor models. Attachment of either the adenosyl and methyl group as the beta ligand should improve the biological activity as it did with the cyanocobalamin mono-DTPA compound (Transcobalamin II receptor imaging via radiolabeled diethylene-triaminepentaacetate cobalamin analogs, J. Nucl. Med., 38, 717-723 (1997); also described in U.S. Pat.

[3] = pH of 1000 μg/10 mL solutions in normal saline; format: physicochemical; details: 1000 μg in 10 mL normal saline, room temperature, no buffers
Experimental: (§1) Under dim light, 1000 μg of the non-labeled methyl-, adenosyl-, and cyanocobalamin-b-(4-aminobutyl)amide-DTPA, as well as 1000 μg of cyanocobalamin and DTPA (Sigma, St. Louis, Mo. 63178), were separately dissolved in 10 mL of normal saline at room temperature. Each of the five 1000 μg/10 mL samples was stored in sealed, aluminum-wrapped 10 mL vials to prevent exposure to light. No buffers were added to the solutions. The pH of the solutions, measured by a Beckman 40 pH meter (Beckman Instruments, Fullerton, Calif.): Cyanocobalamin=5.75, DTPA=3.78; cyano, methyl and adenosylcobalamin-DTPA analogues were 5.75, 6.10, and 6.19, respectively.

Intrinsic Factor (IF) = test: modified intrinsic factor blocking antibody (IFBA) assay, competition with Co-57-cyanocobalamin; format: binding; details: for binding to IF in the IFBA assay (in words): competition with Co-57 cyanocobalamin, compared with negative reference; for averaged percent binding to IF: non-labeled solution (1000 μg/10 mL saline, 1 μL) preincubated with purified IF, then Co-57-cyanocobalamin, average over five patients' runs, estimated from counts vs Clinical run
Experimental: as §1
To assess in vitro binding to Intrinsic Factor (IF) and Transcobalamins (TC), the intrinsic factor blocking antibody (IFBA) and Unsaturated vitamin B12 Binding Capacity (UBBC) assays were performed with serum randomly obtained from five patients being evaluated for pernicious anemia at the Mayo Clinic. The IFBA and UBBC assays were first performed for clinical purposes as previously described by V. F. Fairbanks et al., Mayo Clin. Proc., 58, 203 (1983); Intrinsic Factor Blocking Antibody (^57Co) Radioassay-Package insert, Diagnostic Products Corp.; D. Grossowicz et al., Proc. Exp. Biol., 109, 604 (1962) and C. Gottlieb et al., Blood, 25, 6 (1965).
Next, the serum from the same five patients underwent modified IFBA and UBBC assays. Specifically, 1 μL of the five previously described solutions was separately incubated with purified IF or serum, to potentially saturate all IF and TC-binding sites.
After incubation for 20 minutes at room temperature and for another 20 minutes at 4° C., 500 μl of the stock (1000 μg/l) Cobalt-57-cyanocobalamin (Mallinckrodt Medical, Inc., St. Louis, Mo. 63134) solution was added and the usual IFBA and UBBC protocols were then followed. All supernatant activity was counted for four minutes on a gamma counter (Micromedix 10/20, Huntsville, Ala. 35805).
By using the counts of the Clinical run divided into the counts of the five solutions, the efficacy of binding to intrinsic factor can be estimated. The averaged percent binding of the five solutions to IF was: cyanocobalamin=92.5%; methyl-cobalamin-b-(4-aminobutyl)-amide-DTPA=63.2%; cyanocobalamin-b-(4-aminobutyl)-amide-DTPA=52.9%; adenosylcobalamin-b-(4-aminobutyl)-amide-DTPA=41.0% and 0.8% for DTPA.

transcobalamin proteins [4] = details: relative to cyanocobalamin; J. Nucl. Med. 38, 717-723 (1997), U.S. Pat. No. 5,739,313; cited from earlier work

| Compound | hydrolysis in vivo to regenerate daunorubicin [1] | averaged percent binding to the transcobalamin proteins (transcobalamin proteins [2]) [%] | pH of the solution [3] | binding to IF in the IFBA assay (in words) (Intrinsic Factor (IF)) | averaged percent binding to IF (Intrinsic Factor (IF)) [%] | in vitro UBBC comparison to cyanocobalamin (transcobalamin proteins [4]) [%] |
| --- | --- | --- | --- | --- | --- | --- |
| COc1cccc2c1C(=O)c1c(O)c3c(c(O)c1C2=O)CC(O)(C(C)=O)CC3OC1CC(NC(=O)C(N)CC(C)C)C(O)C(C)O1 (single isomer, unassigned) [D isomer] | not | – | – | – | – | – |
| O=C(O)CN(CCN(CC(=O)O)CC(=O)O)CCN(CC(=O)O)CC(=O)O [DTPA, diethylenetriaminepentaacetic acid] | – | 3.6 | 3.78 | does not significantly bind to IF | 0.8 | – |
| COc1cccc2c1C(=O)c1c(O)c3c(c(O)c1C2=O)C[C@@](O)(C(C)=O)C[C@@H]3O[C@H]1C[C@H](NC(=O)[C@@H](N)CC(C)C)C(O)[C@H](C)O1 (stereo partly drawn) [N-(L-leucyl) daunorubicin] | hydrolyzed in vivo to regenerate daunorubicin | – | – | – | – | – |
| Adenosylcobalamin-b-(4-aminobutyl)amide DTPA | – | 90.4 | 6.19 | – | 41.0 | – |
| Cyanocobalamin-b-(4-aminobutyl)amide DTPA | – | 66.4 | 5.75 | – | 52.9 | 66.4 |
| Methylcobalamin-b-(4-aminobutyl)amide DTPA | – | 94.0 | 6.10 | – | 63.2 | – |
| cyanocobalamin | – | 100 | 5.75 | competitively inhibit Co-57 cyanocobalamin from binding to intrinsic factor | 92.5 | – |
